Reference: patent publication US20230265151A1, “GIP/GLP1 CO-AGONIST COMPOUNDS” (priority 2020, published 2023)
Read-outs that look alike come from different tables or passages of the source.

Tests used:
hGLP-1R = hGLP-1R (Homo sapiens, UniProt P43220); assay: Functional cAMP formation (HTRF) in HEK-293 clonal cells expressing hGLP-1R, 0.1% bovine casein, without or with 1.0% human serum albumin; format: cell-based; set-up: expressed in transfected cells; conditions: 37° C.; for Emax: HEK293, cAMP, percent of maximal response to GLP-1(7-36)NH2, read-out: hGLP-1R Emax, % ± SEM; for EC50: cAMP, read-out: hGLP-1R EC50, nM (SEM, n)
In short: (§1)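 Readings of the HTRF 665/620 nm ratio, which falls as cAMP rises, were converted to nM cAMP using a standard curve after 30 min peptide exposure at 37° C.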

[1] = target: T1, human GLP-1 receptor (hGLP-1R) (Homo sapiens, UniProt P43220); assay: [125I]-GLP-1 binding, SPA with membranes of HEK293 cells expressing hGLP-1R; conditions: human GLP-1R; geometric mean (SEM, n); read-out: Binding Affinity Ki, nM (SEM, n) hGLP-1R
T1 construct: expressed in transfected cells; crude membranes

hGIPR = target: T2, hGIPR (Homo sapiens, UniProt P48546); assay: Functional cAMP formation (HTRF) in HEK-293 clonal cells expressing hGIPR, 0.1% bovine casein, without or with 1.0% human serum albumin; format: cell-based; conditions: 37° C.; for Emax: HEK293, cAMP, percent of maximal response to GIP(1-42)NH2, read-out: hGIPR Emax, % ± SEM; for EC50: cAMP, 0.1% bovine casein (no human serum albumin), geometric mean, read-out: hGIPR EC50, nM (SEM, n)
T2 construct: expressed in transfected cells
T2 sequence (P48546 22-466): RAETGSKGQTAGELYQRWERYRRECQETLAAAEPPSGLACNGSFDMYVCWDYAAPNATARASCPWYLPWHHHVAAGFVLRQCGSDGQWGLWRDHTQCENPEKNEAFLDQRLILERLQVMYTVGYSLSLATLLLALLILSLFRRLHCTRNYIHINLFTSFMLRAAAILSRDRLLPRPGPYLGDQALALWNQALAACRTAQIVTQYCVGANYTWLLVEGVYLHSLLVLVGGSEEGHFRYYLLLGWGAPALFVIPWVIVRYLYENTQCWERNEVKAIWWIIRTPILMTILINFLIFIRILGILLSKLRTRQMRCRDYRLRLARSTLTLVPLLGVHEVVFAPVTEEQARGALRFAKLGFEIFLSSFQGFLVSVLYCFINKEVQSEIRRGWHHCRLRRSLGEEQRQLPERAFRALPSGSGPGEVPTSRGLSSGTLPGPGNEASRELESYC
In short: as §1

[2] = target: T3, human GIP receptor (hGIPR) (Homo sapiens, UniProt P48546); assay: [125I]-GIP binding, SPA with membranes of CHO cells expressing hGIPR; conditions: human GIPR; geometric mean (SEM, n); read-out: Binding Affinity Ki, nM (SEM, n) hGIPR
T3 construct: expressed in transfected cells; crude membranes
T3 sequence (P48546 22-466): T2 sequence (P48546 22-466)

hGCGR = target: T4, hGCGR (Homo sapiens, UniProt P47871); assay: Functional cAMP formation (HTRF) in HEK-293 clonal cells expressing hGCGR, 0.1% bovine casein, without or with 1.0% human serum albumin; format: cell-based; conditions: cAMP, 37° C., read-out: hGCGR EC50, nM (SEM, n)
T4 construct: expressed in transfected cells
In short: as §1

[3] = 0.1% bovine casein and 1.0% human serum albumin
[4] = 0.1% bovine casein, arithmetic mean
[5] = 0.1% bovine casein (no human serum albumin), geometric mean
[6] = 0.1% bovine casein and 1.0% human serum albumin, geometric mean (SEM, n)

T1 sequence (P43220 24-463): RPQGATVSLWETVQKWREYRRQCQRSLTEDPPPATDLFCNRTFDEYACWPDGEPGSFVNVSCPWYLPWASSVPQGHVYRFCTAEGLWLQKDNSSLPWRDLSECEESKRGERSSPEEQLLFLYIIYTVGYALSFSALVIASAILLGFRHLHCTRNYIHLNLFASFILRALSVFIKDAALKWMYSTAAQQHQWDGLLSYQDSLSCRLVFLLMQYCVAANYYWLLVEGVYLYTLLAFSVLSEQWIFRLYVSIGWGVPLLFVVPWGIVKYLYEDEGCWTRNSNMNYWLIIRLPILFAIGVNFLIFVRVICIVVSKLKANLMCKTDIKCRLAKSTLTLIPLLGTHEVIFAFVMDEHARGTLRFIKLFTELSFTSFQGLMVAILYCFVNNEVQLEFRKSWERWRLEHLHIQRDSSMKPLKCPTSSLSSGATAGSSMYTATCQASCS
Chain of hGLP-1R (P43220 24-463): as above
T4 sequence (P47871 26-477): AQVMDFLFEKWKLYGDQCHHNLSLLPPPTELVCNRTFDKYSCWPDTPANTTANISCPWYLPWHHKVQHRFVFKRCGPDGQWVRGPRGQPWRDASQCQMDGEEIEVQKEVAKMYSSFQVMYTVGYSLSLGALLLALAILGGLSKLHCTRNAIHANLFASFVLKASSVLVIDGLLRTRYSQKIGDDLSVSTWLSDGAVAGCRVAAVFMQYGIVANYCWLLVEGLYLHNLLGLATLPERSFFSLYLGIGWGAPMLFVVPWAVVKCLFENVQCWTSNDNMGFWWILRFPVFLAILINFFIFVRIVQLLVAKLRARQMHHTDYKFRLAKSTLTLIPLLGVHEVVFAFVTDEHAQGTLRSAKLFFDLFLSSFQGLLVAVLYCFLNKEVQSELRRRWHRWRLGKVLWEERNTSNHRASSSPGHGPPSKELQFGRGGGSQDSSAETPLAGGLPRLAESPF

Structure (SMILES)	Emax (hGLP-1R; [3])	Emax (hGLP-1R; [4])	EC50 (hGLP-1R; [5])	EC50 (hGLP-1R; [6])	Ki [1]	Emax (hGIPR; [3])	EC50 (hGIPR)	Ki [2]	EC50 (hGCGR; [5])	EC50 (hGCGR; [6])	Emax (hGIPR; [4])
CCCCCCCCCCCC(=O)N[C@@H](CCC(=O)NCCOCCOCC(=O)NCCOCCOCC(=O)NCCCC[C@H](NC(=O)[C@H](CO)NC(=O)[C@@H]1CCCN1C(=O)[C@@H]1CCCN1C(=O)[C@@H]1CCCN1C(=O)[C@H](C)NC(=O)CNC(=O)[C@H](CO)NC(=O)[C@H](CO)NC(=O)[C@@H]1CCCN1C(=O)CNC(=O)CNC(=O)[C@H](CCC(=O)O)NC(=O)[C@@H](NC(=O)[C@H](CC(C)C)NC(=O)[C@](C)(Cc1ccc(O)cc1)NC(=O)[C@@H](CCC(=O)O)NC(=O)[C@@H](NC(=O)[C@H](Cc1ccccc1)NC(=O)[C@H](CCC(=O)O)NC(=O)C(C)(C)NC(=O)[C@H](CCC(N)=O)NC(=O)[C@H](C)NC(=O)[C@H](CCCCNC(=O)COCCOCCNC(=O)COCCOCCNC(=O)CC[C@H](NC(=O)CCCCCCCCCCC)C(=O)O)NC(=O)[C@H](CCCN)NC(=O)[C@H](CC(=O)O)NC(=O)[C@H](CC(C)C)NC(=O)[C@](C)(CC(C)C)NC(=O)[C@@H](NC(=O)C(C)(C)NC(=O)[C@H](Cc1ccncc1)NC(=O)[C@H](CC(=O)O)NC(=O)[C@H](CO)NC(=O)[C@@H](NC(=O)[C@](C)(Cc1ccccc1F)NC(=O)[C@@H](NC(=O)CNC(=O)[C@H](CCC(=O)O)NC(=O)C(C)(C)NC(=O)[C@@H](N)Cc1ccc(O)cc1)[C@@H](C)O)[C@@H](C)O)[C@@H](C)CC)[C@@H](C)CC)[C@@H](C)CC)C(N)=O)C(=O)O [Example 324]	99.4%	97.6%	0.0647 nM	4.38 nM	0.168 nM	85.4%	0.00632 nM	0.0163 nM	> 9950 nM	> 9950 nM	–
CC[C@H](C)[C@H](NC(=O)[C@H](CC(C)C)NC(=O)[C@](C)(Cc1ccc(O)cc1)NC(=O)[C@H](CCCCNC(=O)CCOCCOCCOCCOCCOCCOCCNC(=O)CC[C@H](NC(=O)CCCCCCCCCCCCC(=O)O)C(=O)O)NC(=O)[C@@H](NC(=O)[C@H](Cc1ccccc1)NC(=O)[C@H](CCCN)NC(=O)C(C)(C)NC(=O)[C@H](CCC(N)=O)NC(=O)[C@H](C)NC(=O)[C@H](CCC(N)=O)NC(=O)[C@H](CCCN)NC(=O)[C@H](CC(=O)O)NC(=O)[C@H](CC(C)C)NC(=O)[C@](C)(CC(C)C)NC(=O)[C@@H](NC(=O)C(C)(C)NC(=O)[C@H](Cc1ccncc1)NC(=O)[C@H](CC(=O)O)NC(=O)[C@H](CO)NC(=O)[C@@H](NC(=O)[C@](C)(Cc1ccccc1F)NC(=O)[C@@H](NC(=O)CNC(=O)[C@H](CCC(=O)O)NC(=O)C(C)(C)NC(=O)[C@@H](N)Cc1ccc(O)cc1)[C@@H](C)O)[C@@H](C)O)[C@@H](C)CC)[C@@H](C)CC)C(=O)N[C@@H](CCCCNC(=O)CCOCCOCCOCCOCCOCCOCCNC(=O)CC[C@H](NC(=O)CCCCCCCCCCCCC(=O)O)C(=O)O)C(=O)NCC(=O)NCC(=O)N1CCC[C@H]1C(=O)N[C@@H](CO)C(=O)N[C@@H](CO)C(=O)NCC(=O)N[C@@H](C)C(=O)N1CCC[C@H]1C(=O)N1CCC[C@H]1C(=O)N1CCC[C@H]1C(=O)N[C@@H](CO)C(N)=O [Example 466]	–	105%	0.156 nM	–	0.2 nM	93.4%	0.00971 nM	0.0199 nM	> 10100 nM	> 10100 nM	98.8%
CCCCCCCCCCCC(=O)N[C@@H](CCC(=O)NCCOCCOCC(=O)NCCOCCOCC(=O)NCCOCCOCC(=O)NCCCC[C@H](NC(=O)[C@H](CCCN)NC(=O)[C@H](CC(=O)O)NC(=O)[C@H](CC(C)C)NC(=O)[C@](C)(CC(C)C)NC(=O)[C@@H](NC(=O)C(C)(C)NC(=O)[C@H](Cc1ccncc1)NC(=O)[C@H](CC(=O)O)NC(=O)[C@H](CO)NC(=O)[C@@H](NC(=O)[C@](C)(Cc1ccccc1F)NC(=O)[C@@H](NC(=O)CNC(=O)[C@H](CCC(=O)O)NC(=O)C(C)(C)NC(=O)[C@@H](N)Cc1ccc(O)cc1)[C@@H](C)O)[C@@H](C)O)[C@@H](C)CC)C(=O)N[C@@H](C)C(=O)N[C@@H](CCC(N)=O)C(=O)NC(C)(C)C(=O)N[C@@H](CCCCNC(=O)COCCOCCNC(=O)COCCOCCNC(=O)COCCOCCNC(=O)CC[C@H](NC(=O)CCCCCCCCCCC)C(=O)O)C(=O)N[C@@H](Cc1ccccc1)C(=O)N[C@H](C(=O)N[C@H](CCC(=O)O)C(=O)N[C@@](C)(Cc1ccc(O)cc1)C(=O)N[C@@H](CC(C)C)C(=O)N[C@H](C(=O)N[C@@H](CCCN)C(=O)NCC(=O)NCC(=O)N1CCC[C@H]1C(=O)N[C@@H](CO)C(=O)N[C@@H](CO)C(=O)NCC(=O)N[C@@H](C)C(=O)N1CCC[C@H]1C(=O)N1CCC[C@H]1C(=O)N1CCC[C@H]1C(=O)N[C@@H](CO)C(N)=O)[C@@H](C)CC)[C@@H](C)CC)C(=O)O [Example 433]	–	–	0.128 nM	2.63 nM	0.187 nM	100%	0.00972 nM	0.0175 nM	> 9950 nM	> 9950 nM	94%
CC[C@H](C)[C@H](NC(=O)[C@H](CC(C)C)NC(=O)[C@](C)(Cc1ccc(O)cc1)NC(=O)[C@H](CCCCNC(=O)CC[C@H](NC(=O)COCCOCCNC(=O)COCCOCCNC(=O)CC[C@H](NC(=O)CCCCCCCCCCCCC(=O)O)C(=O)O)C(=O)O)NC(=O)[C@@H](NC(=O)[C@H](Cc1ccccc1)NC(=O)[C@H](CCCN)NC(=O)C(C)(C)NC(=O)[C@H](CCC(N)=O)NC(=O)[C@H](C)NC(=O)[C@H](CCC(N)=O)NC(=O)[C@H](CCCN)NC(=O)[C@H](CC(=O)O)NC(=O)[C@H](CC(C)C)NC(=O)[C@](C)(CC(C)C)NC(=O)[C@@H](NC(=O)C(C)(C)NC(=O)[C@H](Cc1ccncc1)NC(=O)[C@H](CC(=O)O)NC(=O)[C@H](CO)NC(=O)[C@@H](NC(=O)[C@](C)(Cc1ccccc1F)NC(=O)[C@@H](NC(=O)CNC(=O)[C@H](CCC(=O)O)NC(=O)C(C)(C)NC(=O)[C@@H](N)Cc1ccc(O)cc1)[C@@H](C)O)[C@@H](C)O)[C@@H](C)CC)[C@@H](C)CC)C(=O)N[C@@H](CCCCNC(=O)CC[C@H](NC(=O)COCCOCCNC(=O)COCCOCCNC(=O)CC[C@H](NC(=O)CCCCCCCCCCCCC(=O)O)C(=O)O)C(=O)O)C(=O)NCC(=O)NCC(=O)N1CCC[C@H]1C(=O)N[C@@H](CO)C(=O)N[C@@H](CO)C(=O)NCC(=O)N[C@@H](C)C(=O)N1CCC[C@H]1C(=O)N1CCC[C@H]1C(=O)N1CCC[C@H]1C(=O)N[C@@H](CO)C(N)=O [Example 482]	110%	118%	0.169 nM	–	0.254 nM	–	0.0158 nM	0.0277 nM	> 9950 nM	> 9950 nM	–
